Measured values published in ChEMBL document CHEMBL2062510, “Acylphloroglucinols from Elaphoglossum crassipes: antidepressant-like activity of crassipin A” (J Nat Prod, 2012).
The source made the active and inactive calls. No cut-off for these calls is given here.

Experiments:
Mus musculus [1] = experiment: Antidepressant activity in CF1 mouse assessed as reduction in immobility at 20 mg/kg, po measured after 60 mins by forced-swimming test; format: functional, organism-based; design: dose 20 mg/kg
Mus musculus [2] = experiment: Antidepressant activity in CF1 mouse assessed as reduction in immobility at 15 mg/kg, po measured after 60 mins by forced-swimming test; format: functional, organism-based; design: dose 15 mg/kg
Mus musculus [3] = experiment: Toxicity in CF1 mouse assessed as change in number of grooming at 15 mg/kg, po measured after 60 mins by open-field test; format: organism-based; design: dose 15 mg/kg, route oral; settings: in vivo, 1 h
Mus musculus [4] = experiment: Toxicity in CF1 mouse assessed as change in number of rearing at 15 mg/kg, po measured after 60 mins by open-field test; format: organism-based; design: dose 15 mg/kg, route oral; settings: in vivo, 1 h
Mus musculus [5] = experiment: Toxicity in CF1 mouse assessed as change in number of crossing at 15 mg/kg, po measured after 60 mins by open-field test; format: organism-based; design: dose 15 mg/kg, route oral; settings: in vivo, 1 h

CN(C)CCCN1c2ccccc2CCc2ccccc21
Activity (Mus musculus [1]): Active

CCCC(=O)C1=C(O)[C@](C)(C/C=C(\C)CCC=C(C)C)C(O)=C(Cc2c(O)c3c(c(C(=O)CCC)c2O)OC(C)(C)C=C3)C1=O [CRASSIPIN A]
Activity (Mus musculus [2]): Active
Activity (Mus musculus [3]): Non-toxic
Activity (Mus musculus [4]): Non-toxic
Activity (Mus musculus [5]): Non-toxic

CC/C=C(\OC(C)=O)C1=C(OC(C)=O)[C@](C)(C/C=C(\C)CCC=C(C)C)C(OC(C)=O)=C(Cc2c(OC(C)=O)c3c(c(C(=O)CCC)c2OC(C)=O)OC(C)(C)C=C3)C1=O
Activity (Mus musculus [2]): Active
Activity (Mus musculus [3]): Non-toxic
Activity (Mus musculus [4]): Non-toxic
Activity (Mus musculus [5]): Non-toxic
